# According to ChEMBL document CHEMBL4118246, “Discovery and evaluation of 3,5-disubstituted indole derivatives as Pim kinase inhibitors” (Bioorg Med Chem Lett, 2018):
# Assays:
# [1] = biological target: Serine/threonine-protein kinase pim-1 (Homo sapiens, UniProt P11309)
# Description: Inhibition of PIM1 (unknown origin)
# [2] = biological target: Serine/threonine-protein kinase pim-3 (Homo sapiens, UniProt Q86V86); assay: Inhibition of PIM3 (unknown origin)
# [3] = biological target: Serine/threonine-protein kinase pim-2 (Homo sapiens, UniProt Q9P1W9); assay: Inhibition of PIM2 (unknown origin)
# Serine/threonine-protein kinase pim-2, sequence (Q9P1W9 whole entry): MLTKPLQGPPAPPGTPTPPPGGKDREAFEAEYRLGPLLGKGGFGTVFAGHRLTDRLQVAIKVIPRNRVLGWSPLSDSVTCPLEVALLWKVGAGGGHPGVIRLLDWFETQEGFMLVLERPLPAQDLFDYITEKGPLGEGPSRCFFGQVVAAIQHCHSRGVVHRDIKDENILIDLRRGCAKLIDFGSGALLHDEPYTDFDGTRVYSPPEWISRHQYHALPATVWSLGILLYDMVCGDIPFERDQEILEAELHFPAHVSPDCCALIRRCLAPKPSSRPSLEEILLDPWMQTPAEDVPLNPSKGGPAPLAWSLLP
# MV4-11 = assay: Growth inhibition of human MV4-11 cells; format: functional, cell-based
# HepG2 [4] = assay: Cell cycle arrest in human HepG2 cells assessed as accumulation at G0/G1 phase at 10 uM by FACS analysis relative to control; format: functional
# HepG2 [5] = assay: Cell cycle arrest in human HepG2 cells assessed as accumulation at sub-G1 phase at 10 uM by FACS analysis relative to control; format: functional
# HepG2 [6] = assay: Cell cycle arrest in human HepG2 cells assessed as accumulation at S phase at 1 uM by FACS analysis relative to control; format: functional
# HepG2 [7] = assay: Cell cycle arrest in human HepG2 cells assessed as accumulation at sub-G1 phase at 1 uM by FACS analysis relative to control; format: functional
# HepG2 [8] = assay: Cell cycle arrest in human HepG2 cells assessed as accumulation at G2/M phase at 10 uM by FACS analysis relative to control; format: functional
# HepG2 [9] = assay: Cell cycle arrest in human HepG2 cells assessed as accumulation at G0/G1 phase at 1 uM by FACS analysis relative to control; format: functional
# HepG2 [10] = assay: Cell cycle arrest in human HepG2 cells assessed as accumulation at S phase at 10 uM by FACS analysis relative to control; format: functional
# HepG2 [11] = assay: Cell cycle arrest in human HepG2 cells assessed as accumulation at G2/M phase at 1 uM by FACS analysis relative to control; format: functional
# Serine/threonine-protein kinase pim-1, sequence (P11309 whole entry): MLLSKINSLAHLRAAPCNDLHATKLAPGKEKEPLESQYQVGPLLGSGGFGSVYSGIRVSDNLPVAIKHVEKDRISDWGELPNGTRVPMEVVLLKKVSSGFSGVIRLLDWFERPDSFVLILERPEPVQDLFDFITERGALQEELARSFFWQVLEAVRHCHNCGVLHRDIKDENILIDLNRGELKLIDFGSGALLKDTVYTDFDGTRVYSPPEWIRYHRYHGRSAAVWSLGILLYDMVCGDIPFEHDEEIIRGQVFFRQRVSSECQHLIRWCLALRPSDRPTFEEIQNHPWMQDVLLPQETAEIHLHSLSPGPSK
Compound,IC50 [1],IC50 [2],IC50 [3],also measured
CN(C)CCNc1cncc(-c2ccc3[nH]cc(-c4ccnc(N)n4)c3c2)n1,3 nM,7 nM,–,–
NCCNc1cncc(-c2ccc3[nH]cc(-c4ccccc4F)c3c2)n1,5 nM,7 nM,230 nM,–
CC(=O)c1ccc(F)c(-c2c[nH]c3ccc(-c4cncc(NCCN(C)C)n4)cc23)c1,3 nM,7 nM,220 nM,IC50 (MV4-11): 6300 nM
OCCc1cncc(-c2ccc3[nH]cc(-c4ccccc4F)c3c2)n1,885 nM,3050 nM,> 10000 nM,–
Fc1ccccc1-c1c[nH]c2ccc(-c3cncc(N4CCCNCC4)n3)cc12,12 nM,16 nM,537 nM,–
CN(C)CCNc1cncc(-c2ccc3[nH]cc(-c4ccc(C#N)cc4)c3c2)n1,33 nM,155 nM,2540 nM,–
CN(C)CCNc1cncc(-c2ccc3[nH]cc(-c4ccc(N)c(C#N)c4)c3c2)n1,5 nM,10 nM,259 nM,Activity (HepG2 [4]): 53%; Activity (HepG2 [5]): 2.6%; Activity (HepG2 [6]): 21.7%; IC50 (MV4-11): 800 nM; Activity (HepG2 [7]): 3.4%; Activity (HepG2 [8]): 15.8%; Activity (HepG2 [9]): 52.3%; Activity (HepG2 [10]): 23.1%; Activity (HepG2 [11]): 16.5%
CN(C)CCCOc1cncc(-c2ccc3[nH]cc(-c4ccc(C(F)(F)F)cc4)c3c2)n1,307 nM,905 nM,> 10000 nM,–
CN(C)CCNc1cncc(-c2ccc3[nH]cc(-c4ccccc4F)c3c2)n1,7 nM,10 nM,370 nM,–
Brc1ccc2[nH]cc(-c3ccccc3)c2c1,> 10000 nM,–,–,–
CN(C)CCN(C)c1cncc(-c2ccc3[nH]cc(-c4ccc(C(F)(F)F)cc4)c3c2)n1,313 nM,401 nM,> 10000 nM,–
CN(C)CCNc1cncc(-c2ccc3[nH]cc(-c4ccc(S(N)(=O)=O)cc4)c3c2)n1,9 nM,26 nM,700 nM,Activity (HepG2 [4]): 58%; Activity (HepG2 [5]): 2.4%; Activity (HepG2 [6]): 21.3%; IC50 (MV4-11): 6800 nM; Activity (HepG2 [7]): 2.4%; Activity (HepG2 [8]): 14.6%; Activity (HepG2 [9]): 55.5%; Activity (HepG2 [10]): 19.8%; Activity (HepG2 [11]): 15.3%
O=C1NCCN1c1cncc(-c2ccc3[nH]cc(-c4ccccc4F)c3c2)n1,257 nM,273 nM,> 10000 nM,–
CN(C)CCNc1cncc(-c2ccc3[nH]cc(-c4cc(C#N)ccc4F)c3c2)n1,9 nM,18 nM,841 nM,Activity (HepG2 [4]): 37.6%; Activity (HepG2 [5]): 5.7%; Activity (HepG2 [6]): 20.6%; IC50 (MV4-11): 2900 nM; Activity (HepG2 [7]): 2.4%; Activity (HepG2 [8]): 19%; Activity (HepG2 [9]): 53.5%; Activity (HepG2 [10]): 28.3%; Activity (HepG2 [11]): 17%
CCOc1cncc(-c2ccc3[nH]cc(-c4ccccc4)c3c2)n1,> 10000 nM,> 10000 nM,> 10000 nM,–
FC(F)(F)c1ccc(-c2c[nH]c3ccc(-c4cncc(N5CCNCC5)n4)cc23)cc1,260 nM,241 nM,2120 nM,–
CN(C)CCNc1cncc(-c2ccc3[nH]cc(-c4ccc(N)cc4F)c3c2)n1,3 nM,9 nM,267 nM,IC50 (MV4-11): 1700 nM
CN(C)CCNc1cncc(-c2ccc3[nH]cc(-c4ccc(S(C)(=O)=O)cc4)c3c2)n1,21 nM,50 nM,2160 nM,Activity (HepG2 [4]): 52.5%; Activity (HepG2 [5]): 2.7%; Activity (HepG2 [6]): 20.7%; IC50 (MV4-11): 7300 nM; Activity (HepG2 [7]): 1.6%; Activity (HepG2 [8]): 17.9%; Activity (HepG2 [9]): 51.7%; Activity (HepG2 [10]): 20.9%; Activity (HepG2 [11]): 19.3%
CN(C)CCOc1cncc(-c2ccc3[nH]cc(-c4ccc(C(F)(F)F)cc4)c3c2)n1,443 nM,877 nM,> 10000 nM,–
COc1ccc(-c2c[nH]c3ccc(-c4cncc(NCCN(C)C)n4)cc23)cc1,9 nM,30 nM,870 nM,–
NC1CCCN(c2cncc(-c3ccc4[nH]cc(-c5ccccc5F)c4c3)n2)C1 (stereo unspecified),7 nM,11 nM,1380 nM,–
FC(F)(F)c1ccc(-c2c[nH]c3ccc(-c4cncc(OC5CCNCC5)n4)cc23)cc1,187 nM,204 nM,4350 nM,–
CN(C)CCNc1cncc(-c2ccc3[nH]cc(-c4ccc(N)cc4)c3c2)n1,8 nM,29 nM,460 nM,–
CN(C)CCNc1cncc(-c2ccc3[nH]cc(-c4cc(C(=O)O)ccc4F)c3c2)n1,23 nM,137 nM,1430 nM,–
CN(C)CCCN(C)c1cncc(-c2ccc3[nH]cc(-c4ccc(C(F)(F)F)cc4)c3c2)n1,209 nM,475 nM,> 10000 nM,–
CN(C)CCNc1cncc(-c2ccc3[nH]cc(-c4ccc(-c5ccccc5)cc4)c3c2)n1,160 nM,417 nM,5330 nM,–
CN1CCC(CNc2ccc3ncc(-c4cccc(OC(F)(F)F)c4)n3n2)CC1 [SGI-1776],–,–,–,Activity (HepG2 [4]): 36.9%; Activity (HepG2 [5]): 52.3%; Activity (HepG2 [6]): 19.8%; IC50 (MV4-11): 30 nM; Activity (HepG2 [7]): 16%; Activity (HepG2 [8]): 1.9%; Activity (HepG2 [9]): 44.2%; Activity (HepG2 [10]): 8.3%; Activity (HepG2 [11]): 13.3%

# The next lines start with results.
IC50 [1],IC50 [2],IC50 [3],Compound,also measured
19 nM,40 nM,820 nM,CN(C)CCNc1cncc(-c2ccc3[nH]cc(-c4cccc(N)c4)c3c2)n1,–
67 nM,247 nM,5800 nM,CN(C)CCNc1cncc(-c2ccc3[nH]cc(-c4ccc(C(F)(F)F)cc4)c3c2)n1,–
256 nM,589 nM,7950 nM,CN(C)CCNc1cncc(-c2ccc3[nH]cc(-c4ccc(C(F)(F)F)c(F)c4)c3c2)n1,–
144 nM,183 nM,4320 nM,CN(C)CCNc1cncc(-c2ccc3[nH]cc(-c4ccc(F)c(C(F)(F)F)c4)c3c2)n1,–
35 nM,69 nM,2260 nM,CN(C)CCNc1cncc(-c2ccc3[nH]cc(-c4cccc(C(F)(F)F)c4)c3c2)n1,–
9 nM,22 nM,645 nM,CN(C)CCNc1cncc(-c2ccc3[nH]cc(-c4cccc(F)c4F)c3c2)n1,Activity (HepG2 [4]): 22.6%; Activity (HepG2 [5]): 74.2%; Activity (HepG2 [6]): 19.2%; IC50 (MV4-11): 2600 nM; Activity (HepG2 [7]): 2.8%; Activity (HepG2 [8]): 0%; Activity (HepG2 [9]): 56%; Activity (HepG2 [10]): 3.2%; Activity (HepG2 [11]): 16.2%
7 nM,19 nM,560 nM,COc1cccc(-c2c[nH]c3ccc(-c4cncc(NCCN(C)C)n4)cc23)c1,–
195 nM,368 nM,> 10000 nM,CN(C)CCCNc1cncc(-c2ccc3[nH]cc(-c4ccc(C(F)(F)F)cc4)c3c2)n1,–
21 nM,60 nM,770 nM,CN(C)CCNc1cncc(-c2ccc3[nH]cc(-c4cccc(C#N)c4)c3c2)n1,–
134 nM,128 nM,2780 nM,CN(C)CCNc1cncc(-c2ccc3[nH]cc(-c4cccc(OC(F)(F)F)c4)c3c2)n1,–
30 nM,35 nM,650 nM,CN(C)CCNc1cncc(-c2ccc3[nH]cc(-c4cccc(F)c4)c3c2)n1,–
96 nM,236 nM,4440 nM,CN(C)CCNc1cncc(-c2ccc3[nH]cc(-c4ccc(OC(F)(F)F)cc4)c3c2)n1,–
22 nM,82 nM,1620 nM,CN(C)CCNc1cncc(-c2ccc3[nH]cc(-c4ccc(F)cc4)c3c2)n1,–
19 nM,33 nM,1800 nM,Cc1ccc(-c2c[nH]c3ccc(-c4cncc(NCCN(C)C)n4)cc23)cc1,–
21 nM,29 nM,830 nM,Cc1cccc(-c2c[nH]c3ccc(-c4cncc(NCCN(C)C)n4)cc23)c1,–
